Experimental data taken from ChEMBL document CHEMBL1671741, “The development of ciprofloxacin resistance in Pseudomonas aeruginosa involves multiple response stages and multiple proteins” (2010).
Values after ≈ are worked out from the molar mass of the structure shown. Active and inactive are the calls of the source. The rule behind the calls is not given here.

Experiments:
Pseudomonas aeruginosa [1] = experiment: Antibacterial activity against Pseudomonas aeruginosa PAO1 harboring gabD::ISlacZ/haha mutation by Etest; format: functional
Pseudomonas aeruginosa [2] = experiment: Antibacterial activity against Pseudomonas aeruginosa PAO1 harboring gabD::ISphoA/haha mutation by Etest; format: functional
Pseudomonas aeruginosa [3] = experiment: Antibacterial activity against wild type Pseudomonas aeruginosa PAO1 assessed as viable bacterial count by Etest; format: functional
Pseudomonas aeruginosa [4] = experiment: Antibacterial activity against Pseudomonas aeruginosa PAO1 harboring gatA::ISphoA/haha mutation by Etest; format: functional
Pseudomonas aeruginosa [5] = experiment: Antibacterial activity against Pseudomonas aeruginosa PAO1 harboring phoU::ISphoA/haha mutation by Etest; format: functional
Pseudomonas aeruginosa [6] = experiment: Antibacterial activity against Pseudomonas aeruginosa PAO1 harboring yaaA::ISphoA/haha mutation by Etest; format: functional
Pseudomonas aeruginosa [7] = experiment: Antibacterial activity against Pseudomonas aeruginosa PAO1 harboring mmsA::ISphoA/haha mutation by Etest; format: functional
Pseudomonas aeruginosa [8] = experiment: Antibacterial activity against Pseudomonas aeruginosa PAO1 horboring yaaA mutant gene assessed as viable bacterial count at 8 times MIC after 48 hrs by Etest; format: functional, organism-based
Pseudomonas aeruginosa [9] = experiment: Antibacterial activity against wild type Pseudomonas aeruginosa PAK assessed as viable bacterial count at 0.5 times MIC after 48 hrs by Etest; format: functional, organism-based
Pseudomonas aeruginosa [10] = experiment: Antibacterial activity against Pseudomonas aeruginosa PAO1 horboring mmsA mutant gene assessed as viable bacterial count at 4 times MIC after 24 hrs by Etest; format: functional, organism-based
Pseudomonas aeruginosa [11] = experiment: Antibacterial activity against Pseudomonas aeruginosa PAO1 horboring yaaA mutant gene assessed as viable bacterial count at 4 times MIC after 24 hrs by Etest; format: functional, organism-based
Pseudomonas aeruginosa [12] = experiment: Antibacterial activity against Pseudomonas aeruginosa PAO1 horboring gabD mutant gene assessed as viable bacterial count at 8 times MIC after 48 hrs by Etest; format: functional, organism-based
Pseudomonas aeruginosa [13] = experiment: Antibacterial activity against Pseudomonas aeruginosa PAO1 horboring gabD mutant gene assessed as viable bacterial count at 4 times MIC after 24 hrs by Etest; format: functional, organism-based
Pseudomonas aeruginosa [14] = experiment: Antibacterial activity against Pseudomonas aeruginosa PAO1 horboring mmsA mutant gene assessed as viable bacterial count at 8 times MIC after 48 hrs by Etest; format: functional, organism-based

Row | Compound | MIC (Pseudomonas aeruginosa [1]) [µg/mL] | MIC (Pseudomonas aeruginosa [2]) [µg/mL] | MIC (Pseudomonas aeruginosa [3]) [µg/mL] | MIC (Pseudomonas aeruginosa [4]) [µg/mL] | MIC (Pseudomonas aeruginosa [5]) [µg/mL] | MIC (Pseudomonas aeruginosa [6]) [µg/mL] | MIC (Pseudomonas aeruginosa [7]) [µg/mL] | Activity (Pseudomonas aeruginosa [8]) | Activity (Pseudomonas aeruginosa [9]) | Activity (Pseudomonas aeruginosa [10]) | Activity (Pseudomonas aeruginosa [11]) | Activity (Pseudomonas aeruginosa [12]) | Activity (Pseudomonas aeruginosa [13]) | Activity (Pseudomonas aeruginosa [14])
1 | CC(C)(O/N=C(\C(=O)N[C@@H]1C(=O)N2C(C(=O)[O-])=C(C[n+]3ccccc3)CS[C@H]12)c1csc(N)n1)C(=O)O [CEFTAZIDIME] | 1 (≈ 1.83 µM) | 1 (≈ 1.83 µM) | 1 (≈ 1.83 µM) | 1 (≈ 1.83 µM) | 1.5 (≈ 2.74 µM) | 0.75 (≈ 1.37 µM) | 1 (≈ 1.83 µM) |  |  |  |  |  |  | 
2 | O=C(O)c1cn(C2CC2)c2cc(N3CCNCC3)c(F)cc2c1=O [CIPROFLOXACIN] |  |  |  | 0.19 (≈ 0.573 µM) |  |  |  | Active | inactive | inactive | Active | Active | inactive | Active
3 | C[C@@H](O)[C@H]1C(=O)N2C(C(=O)O)=C(SCCNC=N)C[C@H]12 [IMIPENEM ANHYDROUS] | 1.5 (≈ 5.01 µM) | 1.5 (≈ 5.01 µM) | 4 (≈ 13.4 µM) | 4 (≈ 13.4 µM) | 4 (≈ 13.4 µM) | 2 (≈ 6.68 µM) | 1 (≈ 3.34 µM) |  |  |  |  |  |  | 
4 | C[C@H]1COc2c(N3CCN(C)CC3)c(F)cc3c(=O)c(C(=O)O)cn1c23.C[C@H]1COc2c(N3CCN(C)CC3)c(F)cc3c(=O)c(C(=O)O)cn1c23.O [LEVOFLOXACIN] | 0.25 | 0.25 |  | 0.5 |  | 0.25 | 0.25 |  |  |  |  |  |  | 
5 | NC[C@H]1O[C@H](O[C@H]2[C@H](O)[C@@H](O[C@H]3O[C@H](CO)[C@@H](O)[C@H](N)[C@H]3O)[C@H](N)C[C@@H]2N)[C@H](N)C[C@@H]1O [TOBRAMYCIN] | 2 (≈ 4.28 µM) | 2 (≈ 4.28 µM) | 2 (≈ 4.28 µM) | 2 (≈ 4.28 µM) | 2 (≈ 4.28 µM) | 2 (≈ 4.28 µM) | 1.5 (≈ 3.21 µM) |  |  |  |  |  |  | 
6 | GENTAMICIN | 3 | 3 | 2 | 3 | 3 | 3 | 2 |  |  |  |  |  |  | 
